System: HOP-62 complex spheroids with HUVEC/MSC, viability
Experiment: Anticancer human tumor HOP-62 cell line growth inhibition [RAS];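 note: spheroids exposed to agents for seven days before readout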;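 for viability, T/C: 100% = DMSO vehicle control viability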
Conditions: for IC50: curve of first compound; for viability, T/C: stronger effect = lower value
In short: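 Tumour cells grown as complex spheroids with HUVEC endothelial cells and mesenchymal stem cells, treated with RAS pathway inhibitor combinations. Each agent spans half-log steps from near clinical Cmax, or 10 microM where Cmax is unknown.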

[1] = second compound 0.00316 µM, first compound 0.0316 µM
[2] = second compound 0.00316 µM, first compound 0.1 µM
[3] = second compound 0.00316 µM, first compound 0.316 µM
[4] = second compound 0.00316 µM, first compound 1 µM
[5] = second compound 0.00316 µM, first compound 3.16 µM
[6] = second compound 0.00316 µM, first compound 10 µM
[7] = second compound 0.01 µM, first compound 0.0316 µM
[8] = second compound 0.01 µM, first compound 0.1 µM
[9] = second compound 0.01 µM, first compound 0.316 µM
[10] = second compound 0.01 µM, first compound 1 µM
[11] = second compound 0.01 µM, first compound 3.16 µM
[12] = second compound 0.01 µM, first compound 10 µM
[13] = second compound 0.0316 µM, first compound 0.0316 µM
[14] = second compound 0.0316 µM, first compound 0.1 µM
[15] = second compound 0.0316 µM, first compound 0.316 µM
[16] = second compound 0.0316 µM, first compound 1 µM
[17] = second compound 0.0316 µM, first compound 3.16 µM
[18] = second compound 0.0316 µM, first compound 10 µM
[19] = second compound 0.1 µM, first compound 0.0316 µM
[20] = second compound 0.1 µM, first compound 0.1 µM
[21] = second compound 0.1 µM, first compound 0.316 µM
[22] = second compound 0.1 µM, first compound 1 µM
[23] = second compound 0.1 µM, first compound 3.16 µM
[24] = second compound 0.1 µM, first compound 10 µM
[25] = second compound 0.316 µM, first compound 0.0316 µM
[26] = second compound 0.316 µM, first compound 0.1 µM
[27] = second compound 0.316 µM, first compound 0.316 µM
[28] = second compound 0.316 µM, first compound 1 µM
[29] = second compound 0.316 µM, first compound 3.16 µM
[30] = second compound 0.316 µM, first compound 10 µM
[31] = second compound 1 µM, first compound 0.0316 µM
[32] = second compound 1 µM, first compound 0.1 µM
[33] = second compound 1 µM, first compound 0.316 µM
[34] = second compound 1 µM, first compound 1 µM
[35] = second compound 1 µM, first compound 3.16 µM
[36] = second compound 1 µM, first compound 10 µM

SMILES: CC(C)NCC(C(=O)N1CCN(c2ncnc3c2C(C)CC3O)CC1)c1ccc(Cl)cc1 (stereo unspecified) + C=CC(=O)N1CCN(c2nc(OCC3CCCN3C)nc3c(F)c(-c4nc(N)cc(C)c4C(F)(F)F)c(Cl)cc23)C(C)C1
- IC50 (second compound 0.00316 µM): 1.05 µM
- IC50 (second compound 0.01 µM): 0.71 µM
- IC50 (second compound 0.0316 µM): 0.464 µM
- IC50 (second compound 0.1 µM): 0.45 µM
- IC50 (second compound 0.316 µM): 0.554 µM
- IC50 (second compound 1 µM): 0.3 µM
- viability, T/C [1]: 84.3%
- viability, T/C [2]: 78.1%
- viability, T/C [3]: 63.4%
- viability, T/C [4]: 53.4%
- viability, T/C [5]: 31%
- viability, T/C [6]: 12.8%
- viability, T/C [7]: 71.7%
- viability, T/C [8]: 67.5%
- viability, T/C [9]: 60.2%
- viability, T/C [10]: 46.3%
- viability, T/C [11]: 27.1%
- viability, T/C [12]: 15.3%
- viability, T/C [13]: 74.9%
- viability, T/C [14]: 60.5%
- viability, T/C [15]: 53.7%
- viability, T/C [16]: 39.2%
- viability, T/C [17]: 39%
- viability, T/C [18]: 12%
- viability, T/C [19]: 70%
- viability, T/C [20]: 57.8%
- viability, T/C [21]: 60.7%
- viability, T/C [22]: 34.6%
- viability, T/C [23]: 25.4%
- viability, T/C [24]: 13.6%
- viability, T/C [25]: 61.7%
- viability, T/C [26]: 81.3%
- viability, T/C [27]: 55.5%
- viability, T/C [28]: 39.4%
- viability, T/C [29]: 23.5%
- viability, T/C [30]: 12.6%
- viability, T/C [31]: 69.8%
- viability, T/C [32]: 57.1%
- viability, T/C [33]: 50.2%
- viability, T/C [34]: 39.4%
- viability, T/C [35]: 23.9%
- viability, T/C [36]: 11.4%

SMILES: CC(C)n1nc(-c2ccc3oc(N)nc3c2)c2c(N)ncnc21 + C=CC(=O)N1CCN(c2nc(OCC3CCCN3C)nc3c(F)c(-c4nc(N)cc(C)c4C(F)(F)F)c(Cl)cc23)C(C)C1
- IC50 (second compound 0.00316 µM): 0.00391 µM
- IC50 (second compound 0.01 µM): 0.00362 µM
- IC50 (second compound 0.0316 µM): 0.00135 µM
- IC50 (second compound 0.1 µM): 0.00129 µM
- IC50 (second compound 0.316 µM): 0.0013 µM
- IC50 (second compound 1 µM): 0.00154 µM
- viability, T/C (second compound 0.00316 µM, first compound 0.000316 µM): 65.2%
- viability, T/C (second compound 0.00316 µM, first compound 0.001 µM): 62.2%
- viability, T/C (second compound 0.00316 µM, first compound 0.00316 µM): 51.7%
- viability, T/C (second compound 0.00316 µM, first compound 0.01 µM): 39.5%
- viability, T/C [1]: 26.7%
- viability, T/C [2]: 17.2%
- viability, T/C (second compound 0.01 µM, first compound 0.000316 µM): 63%
- viability, T/C (second compound 0.01 µM, first compound 0.001 µM): 62.7%
- viability, T/C (second compound 0.01 µM, first compound 0.00316 µM): 52.6%
- viability, T/C (second compound 0.01 µM, first compound 0.01 µM): 33%
- viability, T/C [7]: 27%
- viability, T/C [8]: 17.2%
- viability, T/C (second compound 0.0316 µM, first compound 0.000316 µM): 61.4%
- viability, T/C (second compound 0.0316 µM, first compound 0.001 µM): 51.9%
- viability, T/C (second compound 0.0316 µM, first compound 0.00316 µM): 43%
- viability, T/C (second compound 0.0316 µM, first compound 0.01 µM): 34.4%
- viability, T/C [13]: 23.9%
- viability, T/C [14]: 14%
- viability, T/C (second compound 0.1 µM, first compound 0.000316 µM): 59.5%
- viability, T/C (second compound 0.1 µM, first compound 0.001 µM): 53.2%
- viability, T/C (second compound 0.1 µM, first compound 0.00316 µM): 40.6%
- viability, T/C (second compound 0.1 µM, first compound 0.01 µM): 27%
- viability, T/C [19]: 20.8%
- viability, T/C [20]: 14.1%
- viability, T/C (second compound 0.316 µM, first compound 0.000316 µM): 61.1%
- viability, T/C (second compound 0.316 µM, first compound 0.001 µM): 49.6%
- viability, T/C (second compound 0.316 µM, first compound 0.00316 µM): 45.8%
- viability, T/C (second compound 0.316 µM, first compound 0.01 µM): 25.9%
- viability, T/C [25]: 22.1%
- viability, T/C [26]: 12.9%
- viability, T/C (second compound 1 µM, first compound 0.000316 µM): 64.9%
- viability, T/C (second compound 1 µM, first compound 0.001 µM): 50.1%
- viability, T/C (second compound 1 µM, first compound 0.00316 µM): 47.7%
- viability, T/C (second compound 1 µM, first compound 0.01 µM): 30.2%
- viability, T/C [31]: 20.9%
- viability, T/C [32]: 13.2%

SMILES: CC(Nc1ccc2c(c1)OCCn1cc(N3C(=O)OCC3C(F)F)nc1-2)C(N)=O (stereo unspecified) + C=CC(=O)N1CCN(c2nc(OCC3CCCN3C)nc3c(F)c(-c4nc(N)cc(C)c4C(F)(F)F)c(Cl)cc23)C(C)C1
- IC50 (second compound 0.00316 µM): 0.14 µM
- IC50 (second compound 0.01 µM): 0.0634 µM
- IC50 (second compound 0.0316 µM): < 0.0316 µM
- IC50 (second compound 0.1 µM): 0.0346 µM
- IC50 (second compound 0.316 µM): < 0.0316 µM
- IC50 (second compound 1 µM): < 0.0316 µM
- viability, T/C [1]: 57.6%
- viability, T/C [2]: 53.6%
- viability, T/C [3]: 44.2%
- viability, T/C [4]: 35.5%
- viability, T/C [5]: 30.9%
- viability, T/C [6]: 19.6%
- viability, T/C [7]: 56.5%
- viability, T/C [8]: 44.6%
- viability, T/C [9]: 37.8%
- viability, T/C [10]: 32.7%
- viability, T/C [11]: 27.7%
- viability, T/C [12]: 18.9%
- viability, T/C [13]: 47.5%
- viability, T/C [14]: 40.9%
- viability, T/C [15]: 36.1%
- viability, T/C [16]: 30.2%
- viability, T/C [17]: 24.5%
- viability, T/C [18]: 16.5%
- viability, T/C [19]: 52%
- viability, T/C [20]: 42%
- viability, T/C [21]: 39.2%
- viability, T/C [22]: 32.5%
- viability, T/C [23]: 24%
- viability, T/C [24]: 15.7%
- viability, T/C [25]: 47.4%
- viability, T/C [26]: 37.4%
- viability, T/C [27]: 32.9%
- viability, T/C [28]: 30.6%
- viability, T/C [29]: 20.5%
- viability, T/C [30]: 16.8%
- viability, T/C [31]: 43.6%
- viability, T/C [32]: 40.8%
- viability, T/C [33]: 32.2%
- viability, T/C [34]: 29.6%
- viability, T/C [35]: 24.3%
- viability, T/C [36]: 13%

Source: PubChem BioAssay AID2060892 (Molecular Pharmacology Branch, DTP, NCI, 2025)
